Patent publication US20230203064A1, “TRICYCLIC COMPOUNDS AS INHIBITORS OF NLRP3” (JANSSEN PHARMACEUTICA NV, priority 2020, published 2023)

How the values were obtained:
[1] = system: IL-1β; assay: PBMC assay: IL-1β release after LPS stimulation (NLRP3 inflammasome activity); type: cell-based; conditions: human PBMCs, 30 min pre-incubation, 100 ng/ml LPS for 6 hrs, supernatant, MSD technology
Experimental: (§1) Peripheral venous blood was collected from healthy individuals and human peripheral blood mononuclear cells (PBMCs) were isolated from blood by Ficoll-Histopaque (Sigma-Aldrich, A0561) density gradient centrifugation. After isolation, PBMCs were stored in liquid nitrogen for later use. Upon thawing, PBMC cell viability was determined in growth medium (RPMI media supplemented with 10% fetal bovine serum, 1% Pen-Strep and 1% L-glutamine). Compounds were spotted in a 1:3 serial dilution in DMSO and diluted to the final concentration in 30 μl medium in 96 well plates (Falcon, 353072). PBMCs were added at a density of 7.5×10^4 cells per well and incubated for 30 min in a 5% CO2 incubator at 37° C. LPS stimulation was performed by addition of 100 ng/ml LPS (final concentration, Invivogen, tirl-smips) for 6 hrs followed by collection of cellular supernatant and the analysis of IL-1β (μM) and TNF cytokines levels (μM) via MSD technology according to manufacturers' guidelines (MSD, K151A0H).

[2] = system: TNF; assay: PBMC assay: TNF cytokine level after LPS stimulation; type: cell-based; conditions: human PBMCs, 30 min pre-incubation, 100 ng/ml LPS for 6 hrs, supernatant, MSD technology
Experimental: as §1
The IC50 values (for IL-1β) and EC50 values (TNF) were obtained on compounds of the invention/examples, and are depicted in the following table: […]

SMILES | melting point | IC50 [1] | EC50 [2]
CCN(C)c1nn(CC(=O)Nc2ccncn2)c(=O)c2cc3scnc3n12 [Final Cpd 1, 2-[12-[ethyl(methyl)amino]-9-oxo-5-thia-1,3,10,11-tetrazatricyclo-[6.4.0.02,6]dodeca-2(6),3,7,11-tetraen-10-yl]-N-pyrimidin-4-yl-acetamide] | 214.8 °C | 360 nM | 8.56 µM
CN(C)c1nn(CC(=O)Nc2ccncn2)c(=O)c2cc3scnc3n12 [Final Cpd 2] | 248.3 °C | < 120 nM | > 10 µM
COCCN(C)c1nn(CC(=O)Nc2ccncn2)c(=O)c2cc3sccc3n12 [Final Cpd 3] |  | 660 nM | > 10 µM
CCCN(C)c1nn(CC(=O)Nc2ccncn2)c(=O)c2cc3sccc3n12 [Final Cpd 4] |  | 320 nM | > 10 µM
CNc1nn(CC(=O)Nc2ccncn2)c(=O)c2cc3sccc3n12 [Final Cpd 5] |  | 210 nM | > 10 µM
CCN(C)c1nn(CC(=O)Nc2ccncn2)c(=O)c2cc3sccc3n12 [Final Cpd 6] |  | 250 nM | > 10 µM
CN(C)c1nn(CC(=O)Nc2ccncn2)c(=O)c2cc3sccc3n12 [Final Cpd 7] |  | < 120 nM | > 10 µM
CCCN(C)c1nn(CC(=O)Nc2ccncn2)c(=O)c2cc3scnc3n12 [Final Cpd 8] | 196.7 °C | 280 nM | > 10 µM
CN(C)c1nn(CC(=O)N[C@H]2C[C@@](C)(O)C2)c(=O)c2cc3scnc3n12 [Final Cpd 9] | 221.7 °C | < 120 nM | > 10 µM
CNc1nn(CC(=O)Nc2ccncn2)c(=O)c2cc3scnc3n12 [Final Cpd 10] | 263.5 °C | 270 nM | > 10 µM
CN(C)c1nn(CC(=O)N[C@H]2C[C@@](C)(O)C2)c(=O)c2cc3sccc3n12 [Final Cpd 11, 2-(5-(dimethylamino)-8-oxothieno[2′,3′:4,5]pyrrolo[1,2-d][1,2,4]triazin-7(8H)-yl)-N-((1s,3s)-3-hydroxy-3-methylcyclobutyl)acetamide] |  |  | > 10 µM
CN(C)c1nn(CC(=O)Nc2ccc3nncn3n2)c(=O)c2cc3sc(Cl)cc3n12 [Final Cpd 12, N-([1,2,4]triazolo[4,3-b]pyridazin-6-yl)-2-(2-chloro-5-(dimethylamino)-8-oxothieno[2′,3′:4,5]pyrrolo[1,2-d][1,2,4]triazin-7(8H)-yl)acetamide] |  | 20 nM | 6.97 µM
